This passage reports IC50 results from patent US20060229358A1, “Pharmaceutical composition containing flavonoids” (Taipei Medical University, priority 2005, published 2006).

Test [1] deals with T1, PDE2 (Cavia porcellus, UniProt A0A286XUV5).
T1 sequence (A0A286XUV5 22-936): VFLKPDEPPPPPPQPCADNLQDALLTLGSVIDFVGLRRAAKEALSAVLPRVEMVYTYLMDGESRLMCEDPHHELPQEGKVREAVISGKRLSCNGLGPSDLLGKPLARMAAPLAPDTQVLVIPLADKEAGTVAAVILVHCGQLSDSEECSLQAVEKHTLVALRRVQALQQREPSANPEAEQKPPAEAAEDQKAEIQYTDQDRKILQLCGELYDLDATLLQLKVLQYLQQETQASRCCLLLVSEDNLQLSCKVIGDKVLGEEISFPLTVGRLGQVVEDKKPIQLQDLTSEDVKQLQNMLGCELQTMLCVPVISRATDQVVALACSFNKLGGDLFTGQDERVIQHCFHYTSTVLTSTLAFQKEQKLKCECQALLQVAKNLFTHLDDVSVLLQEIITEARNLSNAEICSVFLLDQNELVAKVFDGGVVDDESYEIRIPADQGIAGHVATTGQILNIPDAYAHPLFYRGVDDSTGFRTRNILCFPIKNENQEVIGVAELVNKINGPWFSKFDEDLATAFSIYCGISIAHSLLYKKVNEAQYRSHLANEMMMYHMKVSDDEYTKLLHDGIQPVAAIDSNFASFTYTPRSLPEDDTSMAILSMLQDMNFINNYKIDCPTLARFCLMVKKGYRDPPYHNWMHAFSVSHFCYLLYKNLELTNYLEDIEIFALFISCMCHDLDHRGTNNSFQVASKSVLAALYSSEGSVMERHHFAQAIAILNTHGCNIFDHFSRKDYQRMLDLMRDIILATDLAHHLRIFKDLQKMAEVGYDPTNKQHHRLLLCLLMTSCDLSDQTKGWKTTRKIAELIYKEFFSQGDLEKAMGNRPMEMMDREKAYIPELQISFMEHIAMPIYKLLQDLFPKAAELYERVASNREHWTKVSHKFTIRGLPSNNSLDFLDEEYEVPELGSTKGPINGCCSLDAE
The test is described as follows: Inhibition of cyclic nucleotide PDE activity (Assay I), PDE2. Format: biochemical, guinea pig. Particulars: mean ± S.E.M. (n); read-out: IC50 on phosphodiesterase isozyme 2. How it is done: (§1) Under a protocol approved by the Animal Care and Use Committee of Taipei Medical University, five male guinea pigs (Hartley), weighing 500-600 g, were sacrificed. The lungs (15 g) or hearts (4 g) taken therefrom were chopped into small pieces and homogenized with a glass/teflon homogenizer (Glas-Col, Terre Haute, Ind., USA) in 10 volumes of cold medium (pH 6.5) containing 20 mM Bis-Tris, 2 mM benzamidine, 2 mM EDTA, 50 mM sodium chloride, 0.1 mM phenylmethanesulfonyl fluoride (PMSF), and 1 mM dithiothreitol. At 4° C., the homogenate was centrifuged at 170 g for 15 min, and the supernatant thereof was then re-centrifuged at 40,000 g for 30 min. […] The column was washed with two bed volumes of homogenate buffer to remove unbound material, where the resin beads therein will bind with proteins, such as PDE proteins. Proteins bound to the Q-sepharose beads were eluted with various concentrations (0.23, 0.34, 0.44, 0.69, and 1.00 M) of NaCl dissolved in homogenate buffer (for each concentration, 40-50 mL elution buffer were applied) at a flow rate of 30 ml/h. Fractions (3 ml each) were collected, and ethylene glycol (EG) was added thereto until a final concentration of 30% (v/v). And then the samples were frozen at −70° C.
(§2) The activities of PDE1-5 in the homogenate were measured with a two-step procedure according to the method of Thompson and Appleman, using cAMP with [^3H]-cAMP or cGMP with [^3 H]-cGMP as substrates. The PDE enzyme prepared (25 μl) with 10 μl inhibitor or the solvents therefor was incubated for 30 min at 37° C. in a total assay buffer, where the final volume of the assay is amounted to 100 μl. In accordance with the features of the PDE isozymes, the assay buffer contains 50 mM Tris/HCl (pH 7.4), 3 mM MgCl2, 1 mM dithiothreitol, and 0.05% BSA, and optionally contains 1 uM cAMP with 0.2 μCi [^3H]-cAMP as a substrate alone or in the presence of 0.1 unit calmodulin with 10 μM CaCl2, or 5 μM cGMP, and 1 μM cGMP with 0.2 μCi [^3H]-cGMP as another substrate alone or in the presence of 0.1 unit calmodulin with 10 μM CaCl2.
(§3) The PDE enzyme and the inhibitors (or their solvent) therefor were mixed and incubated on ice for 30 min previously, and then mixed with the assay buffer. The assay was initiated by transferring the mixture to a water bath at 37° C. Following the other 30 min incubation, the reaction was stopped by transferring the reaction vessel to a bath of boiling water for 3 min. After cooling on ice, 20 μl of the 1 mg/ml of Crotalus atrox venom was added to the reaction mixture, and the mixture was incubated at 37° C. for 10 min. The uncatalyzed substrates, such as cAMP, [^3H]-cAMP, cGMP, or [^3H]-cGMP were removed by the addition of 500 μl of a 1-in-1 Tris-HCl (40 mM) buffer suspension of Dowex resin (1×8-200) with incubation on ice for 30 min, since the bindings of the cyclic nucleotides and the resin. Each tube was then centrifuged for 2 min at 6000 rpm, and 100 μl of the supernatant was removed and counted by a β-counter for calculating the enzyme (PDEs) activity.
(§4) The IC50 values of flavonoids and various reference drugs were calculated using non-linear regression analysis by the software SigmaPlot 7.0 (Sigma Chemical, St. Louis Mo., USA). All values are shown as the mean±S.E.M. Differences among values, which are equal or greater to three groups, were statistically calculated by one-way analysis of variance (ANOVA), and then determined by the least significant difference (LSD). The difference between two values, however, was determined by use of Student's unpaired t-test. Differences were considered statistically significant if the P-value was less than 0.05.

Test [2] concerns PDE1. As to the kind of experiment: Inhibition of cyclic nucleotide PDE activity (Assay I), PDE1. Format: biochemical, guinea pig. Particulars: mean ± S.E.M. (n); read-out: IC50 on phosphodiesterase isozyme 1. How it is done:
Under a protocol approved by the Animal Care and Use Committee of Taipei Medical University, five male guinea pigs (Hartley), weighing 500-600 g, were sacrificed. The lungs (15 g) or hearts (4 g) taken therefrom were chopped into small pieces and homogenized with a glass/teflon homogenizer (Glas-Col, Terre Haute, Ind., USA) in 10 volumes of cold medium (pH 6.5) containing 20 mM Bis-Tris, 2 mM benzamidine, 2 mM EDTA, 50 mM sodium chloride, 0.1 mM phenylmethanesulfonyl fluoride (PMSF), and 1 mM dithiothreitol. At 4° C., the homogenate was centrifuged at 170 g for 15 min, and the supernatant thereof was then re-centrifuged at 40,000 g for 30 min. The final supernatant fraction was filtered through the 0.22 μm filter and applied to a Q-sepharose fast flow column (2.2×28 cm), which is pre-washed and pre-equilibrated in homogenization buffer. The column was washed with two bed volumes of homogenate buffer to remove unbound material, where the resin beads therein will bind with proteins, such as PDE proteins. Proteins bound to the Q-sepharose beads were eluted with various concentrations (0.23, 0.34, 0.44, 0.69, and 1.00 M) of NaCl dissolved in homogenate buffer (for each concentration, 40-50 mL elution buffer were applied) at a flow rate of 30 ml/h. Fractions (3 ml each) were collected, and ethylene glycol (EG) was added thereto until a final concentration of 30% (v/v). And then the samples were frozen at −70° C. Under these conditions, the enzyme activity was stable for at least 3 months.
In order to eliminate possible contamination of PDE5 by PDE1, the above-collected fractions with enzyme activity was further purified on a calmodulin-agarose column. The column (1.6 cm×4 cm) was pre-equilibrated by a buffer A, which contains 20 mM Bis-tris, 1 mM dithiothreitol, 2 mM benzamidine, 50 mM NaCl, 3 mMMgCl2, 0.1 mM CaCl2, and 0.1 mM PMSF, pH 6.5. The sample (the mixture of PDE5 and PDE1), being purified by the above-mentioned column, with the CaCl2 concentration thereof adjusted to at least 2 mM previously, was loaded and allowed to be absorbed on the gel for 30 min. Then, the PDE isozymes were eluted by stepwise elution using 20 ml of buffer A with 1 M NaCl followed by 20 ml of buffer A with 1 M NaCl and with 1 mM EGTA. PDE5 was collected first followed by PDE1.
as §2, with “CaCl2. In assay of enzyme inhibition, the assay mixture contained with the inhibitors at various concentrations of flavonoids in the Table 1 or the selective PDE1-5 inhibitors as reference drugs. For example, the selective PDE1-5 inhibitors are vinpocetin [30], EHNA [31], milrinone, Ro 20-1724 [33], and zaprinast, respectively.” for “CaCl2.”
The PDE enzyme and the inhibitors (or their solvent) therefor were mixed and incubated on ice for 30 min previously, and then mixed with the assay buffer. The assay was initiated by transferring the mixture to a water bath at 37° C. Following the other 30 min incubation, the reaction was stopped by transferring the reaction vessel to a bath of boiling water for 3 min. After cooling on ice, 20 μl of the 1 mg/ml of Crotalus atrox venom was added to the reaction mixture, and the mixture was incubated at 37° C. for 10 min. […]

The subject of test [3] is PDE3. The test is described as follows: Inhibition of cyclic nucleotide PDE activity (Assay I), PDE3. Format: biochemical, guinea pig. As to conditions: mean ± S.E.M. (n); read-out: IC50 on phosphodiesterase isozyme 3. How it is done:
as §1, §2, §3, §4

The target of test [4] is T2, high affinity rolipram binding sites (HARBS, PDE4H).
T2 construct: IC50 for displacement of [3H]-rolipram from HARBS; other: 300 μM, guinea pig, preliminary experimental data; other: guinea pig whole brain particulates; over 300 μM not available due
As to the kind of experiment: Binding to particulate HARBS of whole brain, displacement of [3H]-rolipram (Assay II). Details: species or system guinea pig. As to conditions: 2 nM [3H]-rolipram, guinea pig whole brain particulates, FIG. 2; read-out: IC50 for displacement of [3H]-rolipram from HARBS. How it is done: The binding experiments are carried on basis of the methods of Schneider et al. and Zhao et al. with a small modification. Under a protocol approved by the Animal Care and Use Committee of Taipei Medical University, five male guinea pigs (Hartley), weighing 500-600 g, were anesthetized. The whole brains taken therefrom were homogenized with in 10 volumes of cold medium (pH 6.5) containing 20 mM Bis-Tris, 2 mM benzamidine, 2 mM EDTA, 50 mM sodium chloride, 0.1 mM phenylmethanesulfonyl fluoride (PMSF), and 1 mM dithiothreitol. At 4° C., the homogenate was centrifuged at 170 g for 15 min for removing blood vessels and connective tissues, and the supernatant thereof was then re-centrifuged at 40,000 g for 30 min for separating the particulates from the cytosol of cells.
After incubation, the reaction was stopped by transferring the reaction vessel to a bath of crashed ice. Then the reaction mixture was filtered through a punched glass fiber filter (Whatman GF/B) placed in a mini funnel, which was adopted to a 1.5 ml of Eppendorff's tube for collecting the filtrate in the mini centrifuge at 1000 rpm for 10 seconds. By the same way (centrifugation), it is further washed with 0.3 ml reaction buffer each for three times. The Whatman GF/B filter was mixed with 2 ml of cocktail and counted by the β-scintillation counter (Backman, Fullerton, Calif., USA) for counting the radioactivity thereof.

In test [5] the test system is T3, PDE4.
T3 construct: IC50 on phosphodiesterase isozyme 4; other: mean ± S.E.M. (n)
The test is described as follows: Inhibition of cyclic nucleotide PDE activity (Assay I), PDE4, incl. Lineweaver-Burk analysis. Format: biochemical, guinea pig. As to conditions: mean ± S.E.M. (n); read-out: IC50 on phosphodiesterase isozyme 4. How it is done: as §1, §2, §3
The dissociation constant of inhibitor binding (Ki) value was determined from the equation of apparent Km as a function of the inhibitor concentration (insert in A and B, respectively). The slope of the equation is equal to the value of […] (where KM is Michaelis constant). The amounts of the total proteins are calculated based on the analytical method reported by Bradford. In FIGS. 1A and 1B, all enzyme activities are shown as nmole of substrate per mg of proteins per minute (nmole/mg/min) hydrolyzed.
The IC50 values of flavonoids and various reference drugs were calculated using non-linear regression analysis by the software SigmaPlot 7.0 (Sigma Chemical, St. Louis Mo., USA).

SMILES strings stand for the structures.

Regarding `CCCCCC[C@@H]([C@@H](C)O)n1cnc2c(N)ncnc21` (racemic) [EHNA, erythro-9-(2-hydroxy-3-nonyl)adenine, reference compound], the IC50 – broadly, the point on the concentration scale where inhibition reaches its midpoint – in test [1] came to 4.4 ± 1 µM.

Take `COc1ccc(-c2cc(=O)c3c(O)cc(O)cc3o2)cc1O` [Diosmetin]: the figures for the IC50 in test [2] and in test [3] were 14.4 ± 6.2 µM and greater than 100000 nM, respectively.

On to `COc1ccc(C2CC(=O)c3c(OC(C)=O)cc(OC(C)=O)cc3O2)cc1OC(C)=O` (stereo not drawn) [HTA, hesperetin triacetate], for which the IC50 in test [4] is greater than 300 µM.

On to `COc1c(-c2ccc(OC(C)=O)c(OC(C)=O)c2)oc2cc(OC(C)=O)cc(OC(C)=O)c2c1=O` [QMPA, Quercetin 3-O-methyl peracetate], for which the IC50 in test [4] is 8.7 µM.

For the compound `CCCCOc1cc(CC2CNC(=O)N2)ccc1OC` (stereo not drawn) [Ro 20-1724, reference compound], the IC50 in test [5] was 11.4 ± 1.6 µM; in test [4] it was 0.0673 µM.

For `Cc1[nH]c(=O)c(C#N)cc1-c1ccncc1` [milrinone, reference compound], the IC50 in test [3] amounted to 2400 ± 500 nM.

Turning to `CCOC(=O)C1=C[C@]2(CC)CCCN3CCc4c(n1c1ccccc41)[C@@H]32` [vinpocetine, reference compound], the IC50 in test [2] was determined as 123 ± 44.9 µM.
